Laboratory results from patent EP2681209B1, “COMPOUNDS AND METHODS FOR THE TREATMENT OF PAIN AND OTHER DISORDERS” (Aquilus Pharmaceuticals, Inc, priority 2011, dated 2012).
“Also recorded” adds a separate entry of the source.

Tested on: CD-1 mice
Assay: Naloxone-precipitated morphine withdrawal mouse study, intrathecal administration
Assay type: in vivo
Conditions: i.t. 10 µl/mouse every 8 hours for 2.5 days with escalating IP morphine; naloxone 1 mg/kg s.c.; compared to control and vehicle
Source text: One can measure the effects of intrathecal (i.t.) or intraparitoneal (i.p.) administration of a matrix metallorproteinase (MMP) inhibitor in a mouse model of morphine analgesia, tolerance and withdrawal. The purpose of which is to measure the effects of a MMP inhibitor on 1) attenuating morphine tolerance in mice and 2) withdrawal behavior in naloxone-precipitated morphine withdrawal in mice. The animal model which was developed in the 1960's and refined in the early 1970's utilizes the opioid antagonist, naloxone to rapidly block the µ-opioid receptor to "precipitate" withdrawal behavior in rodents (Zachariou, V. et al.; Essential role for RGS9 in opiate action, PNAS, 100(23), p 13656-13661, (2003)). […]
Drug Administration & Morphine withdrawal Studies: The matrix metalloproteinase (MMP) inhibitors were dissolved in phosphate buffered saline (PBS) and dimethylsulfoxide (DMSO) and diluted in PBS (final concentration of DMSO for intrathecal administration was 10%). […] Two hours after the last morphine injection, naloxone (1 mg/kg) was administered s.c. Withdrawal behaviors were then monitored for 30 min, 1 hr after the naloxone injection. […]
MMP inhibitor effects on morphine withdrawal For testing the morphine withdrawal-like behavioral signs following intrathecal MMP inhibitor administration, the withdrawal symptoms were monitored for 30 minutes 1-2 h after naloxone administration. […]

SMILES: [2H]C([2H])([2H])c1ccc(C#Cc2ccc(S(=O)(=O)N[C@H](Cc3c[nH]c4ccccc34)C(=O)O)s2)cc1 [Compound 10, (R)-3-(1H-Indol-3-yl)-2-[5-(4-trideuteromethyl-phenylethynyl)-thiophene-2-sulfonylamino]-propionic acid-(D3, 98%)]
- morphine withdrawal behavior (behavioral signs, overall opiate withdrawal score): able to reduce overall morphine withdrawal behavior; also recorded: significantly attenuates behavioral signs of naloxone-precipitated morphine withdrawal
